Laboratory results from paper PMC11873639 (Acta Pharmaceutica Sinica. B, 2024).
Each block holds one compound with its values, some of them ahead of it.

How the values were obtained:
[1] = system: LAD2 cells; assay: β-hexosaminidase release induced by C48/80 in LAD2 cells; format: cell-based, Human; conditions: for IC50: Homo sapiens, LAD2, read-out: Experimental pIC50 (converted); for antiallergic activity (β-hexosaminidase release inhibition): LAD2 cells, 10 μmol/L
[2] = system: LAD2 cells; assay: LAD2 cell viability; format: cell-based, Human; conditions: 10 μmol/L
[3] = system: LAD2 cells; assay: histamine release in vitro induced by C48/80; format: cell-based, Human; conditions: 1 to 10 μmol/L
[4] = system: mice; assay: body temperature after C48/80; format: in vivo; conditions: 10 mg/kg
[5] = system: mice; assay: serum histamine release in vivo after C48/80; conditions: mice, 1, 5 and 10 mg/kg
[6] = system: C57BL/6 mice; assay: OVA-induced antigen-induced pulmonary inflammation; format: in vivo; conditions: AIPI mice
[7] = system: mice; assay: paw swell and Evans blue extravasation induced by C48/80; format: in vivo; conditions: gavage, 1, 5 and 10 mg/kg
[8] = system: MRGPRX2-HEK293 cells; assay: intracellular Ca2+ mobilization assay; format: cell-based; conditions: MRGPRX2-HEK293 cells, 1, 5, 10 μmol/L
[9] = system: mice; assay: skin toluidine blue staining; format: in vivo; conditions: 10 mg/kg, C48/80
[10] = system: LAD2 cells; assay: IL-8 release induced by C48/80; format: cell-based, Human; conditions: LAD2 cells, 1, 5 and 10 μmol/L
[11] = biological target: T1, MRGPRX2 (Homo sapiens, UniProt Q96LB1); conditions: cited from earlier work
T1 sequence (Q96LB1 1-330): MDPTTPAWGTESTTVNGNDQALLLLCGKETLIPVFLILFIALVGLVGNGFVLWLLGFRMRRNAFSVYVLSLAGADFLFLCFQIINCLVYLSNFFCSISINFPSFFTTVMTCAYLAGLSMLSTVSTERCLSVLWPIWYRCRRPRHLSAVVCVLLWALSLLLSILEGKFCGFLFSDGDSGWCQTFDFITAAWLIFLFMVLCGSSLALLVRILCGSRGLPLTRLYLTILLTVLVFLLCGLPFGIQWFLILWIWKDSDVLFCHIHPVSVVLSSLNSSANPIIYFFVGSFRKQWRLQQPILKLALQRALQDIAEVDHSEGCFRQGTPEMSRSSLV

IC50 [1]: 7.94 µM
Compound: O=C(Nc1ccccc1)Nc1cc(Br)cc(C(F)(F)F)c1 [Compound A-1023, 1-(3-bromo-5-(trifluoromethyl)phenyl)-3-phenylurea]

IC50 [1]: 1.23 µM
Compound: O=C(Nc1ccc(C(F)(F)F)cc1)Nc1cccc(Br)c1 [Compound A-2023, 1-(3-bromophenyl)-3-(4-(trifluoromethyl)phenyl) urea]
cytotoxicity on LAD2 cells [2]: much higher toxicity

IC50 [1]: 8.32 µM
Compound: O=C(Nc1ccccc1)Nc1ccc(C(F)(F)F)cc1 [Compound A-3023]
antiallergic activity (β-hexosaminidase release inhibition) ([1]; C48/80): much more potent than A-4023 | cytotoxicity on LAD2 cells [2]: attenuated cytotoxicity

Compound: O=C(Nc1ccccc1)Nc1cccc(C(F)(F)F)c1 [Compound A-4023]
cytotoxicity on LAD2 cells [2]: attenuated cytotoxicity

IC50 [1]: 21.9 µM
Compound: O=C(Nc1ccccc1)Nc1cccc(Br)c1 [Compound A-5023]
antiallergic activity (β-hexosaminidase release inhibition) ([1]; C48/80): no antiallergic activity | cytotoxicity on LAD2 cells [2]: no antiallergic activity or cytotoxicity

IC50 [1]: 0.17 µM
Compound: O=C(Nc1ccc([N+](=O)[O-])cc1)Nc1ccc(C(F)(F)F)cc1 [Compound B-1023]
inhibition of β-hexosaminidase release ([1]; LAD2 cells, 1, 5 and 10 μmol/L, C48/80): the most potential antiallergic ability | histamine release from LAD2 cells induced by C48/80 [3]: inhibited the histamine release | body temperature drop induced by C48/80 [4]: significantly attenuated the body temperature drop | serum histamine release [5]: reduced in a dose-dependent manner | cytotoxicity on LAD2 cells [2]: nontoxic | Th2 cytokine (IL-5 and IL-13) release in BALF [6]: obviously inhibited | airway hyperresponsiveness (AHR) triggered by Mch [6]: suppressed the AHR | number of bronchoalveolar lavage fluid (BALF) cells [6]: inhibited | lung lesions (HE, PAS, MASSON staining) ([6]; 5 mg/kg oral): exerted anti-AIPI effects | lung lesions (HE, PAS, MASSON staining) ([6]; 10 mg/kg oral): significantly attenuated the pathological changes, with a better effect than that of Dex | serum IgE release ([6]; 10 mg/kg oral): only partially weakened IgE release | hindpaw swelling and Evans blue exudation rates [7]: decreased in a dose-dependent manner | C48/80-induced intracellular calcium mobilization [8]: dose-dependently reduced | local skin mast cell deformation and degranulation (toluidine blue) [9]: reduced mast cell deformation and degranulation | IL-8 release induced by C48/80 [10]: reduced the IL-8 release

IC50 [1]: 0.363 µM
Compound: O=C(Nc1ccc(C(F)(F)F)cc1)Nc1cccc([N+](=O)[O-])c1 [Compound B-2023]

IC50 [1]: 0.832 µM
Compound: O=C(Nc1ccc([N+](=O)[O-])cc1)Nc1cccc(C(F)(F)F)c1 [Compound B-3023]

IC50 [1]: 0.288 µM
Compound: O=C(Nc1cccc([N+](=O)[O-])c1)Nc1cccc(C(F)(F)F)c1 [Compound B-4023]

Compound: O=C(Nc1ccc(C(F)(F)F)cc1)Nc1ccc(S(=O)(=O)O)cc1 [Compound B-6023]
antiallergic activity (β-hexosaminidase release inhibition) ([1]; C48/80): inactivity

Compound: C[C@@H]1C[C@H]2[C@@H]3CCC4=CC(=O)C=C[C@]4(C)[C@@]3(F)[C@@H](O)C[C@]2(C)[C@@]1(O)C(=O)CO [Dexamethasone, reference compound]
airway hyperresponsiveness (AHR) triggered by Mch [6]: suppressed the AHR | lung lesions (HE, PAS, MASSON staining) ([6]; dose not given): improved lung lesions | serum IgE release ([6]; dose not given): almost completely inhibited the excessive release of IgE

Compound: CC(C)=CCOc1c2occc2cc2ccc(=O)oc12 [imperatorin]
IC50 [11]: 50 µM

Compound: C[C@H]1O[C@@H](O[C@H]2CC[C@@]3(C)[C@@H](CC[C@]4(C)[C@@H]3C=C[C@]35OC[C@@]6(CCC(C)(C)C[C@H]63)[C@@H](O)C[C@]54C)[C@]2(C)CO)[C@H](O)[C@@H](O[C@@H]2O[C@H](CO)[C@@H](O)[C@H](O)[C@H]2O)[C@H]1O [saikosaponin A]
IC50 [11]: 640 µM
